Laboratory results reported in patent publication US20120015925A1, “NOVEL BENZOTHIAZEPINE AND BENZOTHIEPINE COMPOUNDS” (ASAHI KASEI PHARMA CORPORATION, priority 2004, published 2012).

Assays:
[1] = tested on: rats dosed cholic acid; experiment: Lowering effect on bile acid concentrations in portal vein blood in rats dosed cholic acid; assay type: in vivo, rat
Method: In the present Test Example, a lowering effect on bile acid concentrations in portal vein blood in rats dosed cholic acid was evaluated according to the method described in Jpn. Pharmacol. Ther., Vol. 24 Supplement, 1996, 103(S-577)-110(S-584).
That is, SD (IGS) strain male rats at 7 to 9 weeks of age were fasted one day before the administration date. […] The blood was collected from the portal vein 2 hours after the forced oral administration, and a total bile acid value in serum was measured to examine the effect of the test compound (n=6). As a control, another group (n=6) merely received cholic acid (200 mg/kg), to which the same procedure was applied. The cholic acid value was measured using the commercially available kit (brand name: Total Bile Acid-Test Wako, supplied form Wako Pure Chemical Industries). Defining the value in the control group to which no test compound had been administered as being 100%, a reduction rate (%) of the bile acid value when a certain amount of the test compound had been administered was calculated.

[2] = tested on: Caco-2 cell; experiment: Gastrointestinal toxicity: cytotoxicity against Caco-2 cell (LDH activity); assay type: cell-based, human; settings: 2 hours, LDH activity in medium relative to cell lysis agent = 100%
Method: That is, 10,000 cells/well of Caco-2 cells (purchased from ATCC) were seeded in a 96-well plate [MEM-E medium, 10% FBS (Fetal Bovine Serum), 1% NEAA (Non Essential Amino Acid) solution, supplied from Gibco]. After culturing for 48 hours, the test compound diluted with the medium was added to each well. After 2 hours, 50 μL of the medium was collected, and an LDH activity in the medium was measured using an LDH activity measurement kit (CytoTox96 Non-Radioactive Cytotoxicity Assay, supplied from Promega). Defining the LDH activity of the Caco-2 cells treated with a cell lysis agent as being 100%, the relative activity was calculated as a index of the cytotoxicity.

[3] = target: T1, human IBAT (Homo sapiens, UniProt Q12908); experiment: In vitro assay using Cos 7 cells, transiently expressed human IBAT; assay type: cell-based; settings: 37° C., 60 minutes
T1 sequence (Q12908 1-348): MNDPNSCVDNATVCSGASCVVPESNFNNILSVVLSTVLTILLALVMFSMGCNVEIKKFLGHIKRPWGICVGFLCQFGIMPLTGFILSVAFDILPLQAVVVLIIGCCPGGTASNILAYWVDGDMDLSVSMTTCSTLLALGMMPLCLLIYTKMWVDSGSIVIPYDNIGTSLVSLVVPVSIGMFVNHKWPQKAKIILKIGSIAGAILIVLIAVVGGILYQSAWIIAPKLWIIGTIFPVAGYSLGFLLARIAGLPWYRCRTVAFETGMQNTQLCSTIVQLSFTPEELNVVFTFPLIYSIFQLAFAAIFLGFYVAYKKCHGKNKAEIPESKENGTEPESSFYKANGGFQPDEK
Summary of the method: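 Cos 7 cells transfected with human or rat IBAT cDNA were assayed one day later in Hanks buffer with 25 mM glucose and 10 mM HEPES (pH 7.4) containing compound. [^3H]-taurocholate (8 μM final) uptake ran 60 min at 37° C. Cells were washed with 1 mM taurocholate, lysed in NaOH, and counted by liquid scintillation.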

[4] = target: T2, rat IBAT (Rattus norvegicus, UniProt Q62633); experiment: In vitro assay using Cos 7 cells, transiently expressed rat IBAT; assay type: cell-based; settings: [3H]-taurocholate 8 μM uptake, 37° C., 60 minutes
T2 sequence (Q62633 1-348): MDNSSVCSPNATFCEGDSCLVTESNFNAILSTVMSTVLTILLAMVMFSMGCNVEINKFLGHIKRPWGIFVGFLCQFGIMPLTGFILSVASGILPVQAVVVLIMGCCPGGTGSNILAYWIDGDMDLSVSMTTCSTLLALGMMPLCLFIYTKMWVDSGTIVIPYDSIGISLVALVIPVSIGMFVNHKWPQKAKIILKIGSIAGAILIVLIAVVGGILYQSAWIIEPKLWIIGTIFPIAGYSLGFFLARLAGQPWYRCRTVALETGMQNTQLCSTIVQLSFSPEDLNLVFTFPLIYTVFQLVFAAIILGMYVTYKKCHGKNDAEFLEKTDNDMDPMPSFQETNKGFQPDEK
Method: In the present Test Example, an in vitro assay of compounds using Cos 7 cells as to inhibitory activity on transiently expressed human IBAT or rat IBAT transporter was performed according to the method described in Am. J. Physiol., 274, G157-169.
That is, […] cells/well of Cos 7 cells were seeded in a 24-well plate, and after one day, the cells were transfected with 0.3 μg/well of cDNA of human IBAT or rat IBAT using FuGENE6 (supplied from Roche). After culturing for one day after the transfection, the cells were washed once with the assay buffer, i.e., Hanks buffer containing 25 mM glucose and 10 mM HEPES (pH 7.4). The assay buffer was then replaced with the assay buffer containing the test compound. [^3H]-Taurocholate at a final concentration of 8 μM was added thereto and incubated at 37° C. for 60 minutes so that [^3H]-taurocholate was taken into Cos 7 cells by the action of human IBAT or rat IBAT. The cells were washed twice with the assay buffer containing 1 mM taurocholate, and subsequently lysed with 0.2 M NaOH to stop the reaction. The cell lysate was added to 4 mL of liquid scintillation cocktail, which was then thoroughly vortexed. Then the radioactivity was measured using the liquid scintillation counter.

[5] = tested on: rats fed cholesterol food; experiment: Blood cholesterol lowering effect in rats fed cholesterol food; assay type: in vivo, rat; settings: 0.3 mg/kg per administration, oral, twice per day; SD (IGS) male rats; serum 3 hours after final administration
Method: In the present Test Example, a blood cholesterol lowering effect on rats fed cholesterol food was evaluated according to the method described in J. Lipid Res., 1995, 36, 1098-1105.
That is, the food containing 0.4% cholesterol and 0.5% bile acid was given to SD (IGS) strain male rats at 7 to 9 weeks of age for 5 days in advance of the test date, to increase blood cholesterol levels. The rats in which the blood cholesterol level had been obviously elevated from the level before loading the cholesterol food were selected as the subjects in the test. Colestimide (brand name: Cholebine 70% granules, supplied from Mitsubishi Tokyo Pharmaceutical Inc.) which is an anion exchange resin drug was suspended in distilled water, and the test compound was dissolved or suspended in distilled water. They were orally administered forcibly twice per day everyday from the starting date (each n=8). The blood was collected from jugular vein 3 hours after the drug administration on the final day of the experiment, and the cholesterol level in serum was measured to examine the effect of the test compound. As a control, another group (n=8) was merely fed cholesterol food, to which distilled water (1 mL/kg) was administered and the same procedure was applied. The total cholesterol value and the HDL cholesterol value were measured using commercially available kits. The value obtained by subtracting the HDL cholesterol value from the total cholesterol value was regarded as an LDL+VLDL cholesterol value.

[6] = 0.1 mg/kg oral with cholic acid 200 mg/kg, portal vein serum total bile acid 2 hours after, control = 100%, surfactant HCO-60 (##)
[7] = 0.1 mg/kg oral, surfactant HCO-60 0.1%, cholic acid 200 mg/kg, portal vein blood 2 hours after administration
[8] = 0.1 mg/kg oral, surfactant Tween 20 0.05%, cholic acid 200 mg/kg, portal vein blood 2 hours after administration

IC50 ([3]; [3H]-taurocholate 8 μM uptake) | Compound | BILE ACID REDUCTION RATE (%) IN RAT MODEL WITH CHOLIC ACID LOADING [1, 6] | CELL TOXICITY AGAINST Caco2 3 μM [2] | CELL TOXICITY AGAINST Caco2 10 μM [2] | CELL TOXICITY AGAINST Caco2 30 μM [2] | also measured
45 nM | CCCCC1(CCCC)CS(=O)(=O)c2ccc(N(C)C)cc2C(c2cccc(NC(=S)Nc3ccc(C[N+](C)(C)CCCC)cc3)c2)N1.[Br-] (racemic) [EXAMPLE 3409] | 28% | <1% | <1% | <1% | –
37 nM | CCCCC1(CCCC)CS(=O)(=O)c2ccc(N(C)C)cc2C(c2cccc(NC(=S)Nc3ccc(C[N+]45CCC(CC4)CC5)cc3)c2)N1.[Br-] (racemic) [EXAMPLE 3695] | – | <1% | <1% | <1% | BILE ACID REDUCTION RATE (%) IN RAT MODEL WITH CHOLIC ACID LOADING [1, 7]: 23%; IC50 [4]: 5 nM
170 nM | CCCCC1(CCCC)CS(=O)(=O)c2ccc(N(C)C)cc2C(c2cccc(NC(=S)NCCC[N+](C)(C)Cc3ccccc3)c2)N1.[Br-] (stereo not drawn) [EXAMPLE 425] | – | – | – | – | BILE ACID REDUCTION RATE (%) IN RAT MODEL WITH CHOLIC ACID LOADING [1, 8]: 21%
41 nM | CCCCC1(CCCC)CS(=O)(=O)c2ccc(N(C)C)cc2C(c2cccc(NC(=S)Nc3ccc(C[N+]4(Cc5ccccc5)CCCC(CO)C4)cc3)c2)N1.[Br-] (stereo not drawn) [EXAMPLE 3607] | – | <1% | <1% | <1% | BILE ACID REDUCTION RATE (%) IN RAT MODEL WITH CHOLIC ACID LOADING [1, 7]: 36%
59 nM | CCCCC1(CCCC)CS(=O)(=O)c2ccc(N(C)C)cc2C(c2cccc(NC(=S)Nc3ccc(C[N+]4(Cc5ccccc5)CCC(CCO)CC4)cc3)c2)N1.[Br-] (stereo not drawn) [EXAMPLE 3608] | – | <1% | <1% | <1% | BILE ACID REDUCTION RATE (%) IN RAT MODEL WITH CHOLIC ACID LOADING [1, 7]: 43%
52 nM | CCCCC1(CCCC)CS(=O)(=O)c2ccc(N(C)C)cc2C(c2cccc(NC(=S)Nc3ccc(C[n+]4ccc(CC)cc4)cc3)c2)N1.[Br-] (stereo not drawn) [EXAMPLE 3710] | 20% | <1% | <1% | <1% | –
– | CCCCC1(CCCC)CS(=O)(=O)c2ccc(N(C)C)cc2C(c2cccc(NC(=S)Nc3ccc(C[n+]4cccc(CC#N)c4)cc3)c2)N1.[Br-] (stereo not drawn) [EXAMPLE 3759] | – | <1% | <1% | <1% | BILE ACID REDUCTION RATE (%) IN RAT MODEL WITH CHOLIC ACID LOADING ([1]; 0.3 mg/kg oral with cholic acid 200 mg/kg, portal vein serum total bile acid 2 hours after, control = 100%, surfactant HCO-60 (##)): 36%
48 nM | CCCCC1(CCCC)CS(=O)(=O)c2ccc(N(C)C)cc2C(c2cccc(NC(=S)Nc3ccc(C[n+]4ccc5ccccc5c4)cc3)c2)N1.[Br-] (stereo not drawn) [EXAMPLE 3783] | 16% | <1% | <1% | <1% | –
43 nM | CCCCC1(CCCC)CS(=O)(=O)c2ccc(N(C)C)cc2C(c2cccc(NC(=S)CCCCC[N+](C)(C)Cc3ccccc3)c2)N1.[Br-] (stereo not drawn) [EXAMPLE 3835] | – | <1% | <1% | <1% | BILE ACID REDUCTION RATE (%) IN RAT MODEL WITH CHOLIC ACID LOADING [1, 8]: 23%
36 nM | CCCCC1(CCCC)CS(=O)(=O)c2ccc(N(C)C)cc2C(c2cccc(NC(=S)CCCCCCC[N+]34CCC(CC3)CC4)c2)N1.[Br-] (stereo not drawn) [EXAMPLE 3932] | – | – | – | – | BILE ACID REDUCTION RATE (%) IN RAT MODEL WITH CHOLIC ACID LOADING [1, 8]: 30%; IC50 [4]: 9 nM
16 nM | CCCCC1(CCCC)CS(=O)(=O)c2ccc(N(C)C)cc2C(c2cccc(NC(=S)Nc3ccc(C[N+]45CCC(c6ccccc6)(CC4)CC5)c(F)c3)c2)N1.[Br-] (stereo not drawn) [EXAMPLE P343] | – | – | <1% | <1% | IC50 [4]: 5.5 nM
19 nM | CCCCC1(CCCC)CS(=O)(=O)c2ccc(N(C)C)cc2C(c2cccc(NC(=S)Nc3ccc(C[N+]45CCC(c6ccccc6)(CC4)CC5)cc3Br)c2)N1.[Br-] (stereo not drawn) [EXAMPLE P346] | – | – | <1% | <1% | IC50 [4]: 6 nM
– | CCCCC1(CCCC)CS(=O)(=O)c2ccc(N(C)C)cc2C(c2cccc(NC(=S)Nc3ccc(C[n+]4ccc(C(C)(C)C)cc4)c(C)c3)c2)N1.[Br-] (stereo not drawn) [EXAMPLE P365] | 40% | – | – | – | LDL + VLDL REDUCTION RATE (%) IN CHOLESTEROL FED RAT MODEL (THERAPEUTIC MODEL) [5]: 44%; IC50 ([3]; [3H]-taurocholate 8 μM): 47 nM
25 nM | CCCCC1(CCCC)CS(=O)(=O)c2ccc(N(C)C)cc2C(c2cccc(NC(=S)Nc3ccc(C[n+]4ccc(C(C)(C)C)cc4)cc3F)c2)N1.[Br-] (stereo not drawn) [EXAMPLE P366] | 45% | – | – | – | LDL + VLDL REDUCTION RATE (%) IN CHOLESTEROL FED RAT MODEL (THERAPEUTIC MODEL) [5]: 31%
– | CCCCC1(CCCC)CS(=O)(=O)c2ccc(N(C)C)cc2C(c2ccc(NC(=S)Nc3cccc(C[N+]45CCC(CC4)CC5)c3)cc2)N1.[Br-] (stereo not drawn) [Example 5406, 1-(3-{3-[4-(3,3-dibutyl-7-dimethylamino-1,1-dioxo-2,3,4,5-tetrahydro-1,4-benzothiazepine-5-yl)phenyl]thioureido}benzyl)-1-azoniabicyclo[2.2.2]octane bromide] | – | – | – | – | BILE ACID REDUCTION RATE (%) IN RAT MODEL WITH CHOLIC ACID LOADING ([1]; po, 0.1 mg/kg, 2 h): 15%
